Assay results from publication PMC8305532, “Bufadienolides from the Skin Secretions of the Neotropical Toad Rhinella alata (Anura: Bufonidae): Antiprotozoal Activity against Trypanosoma cruzi” (Molecules, 2021).
In brackets after ≈: the same amount, converted by molar mass. Where two headings read alike, the source gives them in different places.

Experiments:
[1] = tested on: Vero cells; assay: Mammalian cytotoxicity, MTT assay; assay type: cell-based, monkey; conditions: Primates, 120 h, read-out: IC50 Vero
Description: For cytotoxicity assays, Vero cells were obtained from the American Type Culture Collection (ATCC, Manassas, VA, USA) and cultivated in 96-well plates at 37 °C under a 5% CO2 atmosphere, using RPMI-1640 medium (Sigma-Aldrich, Saint Louis, MO, USA) sterilized with 0.05% gentamicin (50 mg/mL) and supplemented with 10% FBS (fetal bovine serum; Gibco, Invitrogen, Carlsbad, CA, USA). Vero cells were allowed to adhere for 24 h prior to incubation for five days with the samples. During the treatment, DMSO was used as negative control, and samples were assayed at four different concentrations. After incubation, MTT (3-(4,5-di-methyl-thiazol-2-yl)-2,5-di-phenyl-tetra-zolium bromide) was added to each well, and absorbance was determined 4 h later at 570 nm using a color plate reader. Cytotoxicity was evaluated colorimetrically by calculating the ability of the remnant living Vero cells to reduce the pale yellow MTT into the black-purple formazan product, as described earlier. All bioassays were performed in duplicate and the IC50 values were determined employing the Data Analysis complement Wizard of Excel 2000 (Microsoft, Seattle, WA, USA).

[2] = tested on: T. cruzi trypomastigotes; assay: Antiprotozoal activity against T. cruzi (β-galactosidase reporter strain Tulahuen clone C4, in infected Vero cells); assay type: cell-based; conditions: Trypanosoma cruzi, 120 h, read-out: IC50 T. cruzi
Description: The evaluation of the antiprotozoal activity against trypanosomes was carried out using the recombinant strain Tulahuen clone C4 of T. cruzi trypomastigotes (ATCC, Manassas, VA, USA). This strain expresses the β-galactosidase enzyme used as a reporter to assess the viability of the trypanosomatid. The parasites were maintained at 37 °C under a 5% CO2 atmosphere in RPMI-1640 culture medium with L-glutamine, 4-(2-Hydroxyethyl)-piperazine-1-ethanesulfonic acid (HEPES) buffer, NaHCO3, 10% FBS, and 0.05% gentamicin (50 mg/mL) as supplements. Vero cells were cultured for 24 h, and one day prior to the experiment, the cells were infected with trypomastigotes. After additional 24 h of infection, bufadienolides were dissolved in DMSO and tested at four different concentrations by duplicate for five days. Benznidazole was used as the positive control. To determine antitrypanosomal activity, 25 µL of chlorophenol-red-β-D-galactopyranoside (Roche Applied Science) (900 µM) were added to each well and allowed to react with the β-galactosidase of the remaining living parasites for 4.5 h. Absorbance was calculated at 570 nm using a microtiter plate reader (Sinergy HT, BioTek Instruments Inc, Winooski, VT, USA).
(§1) All antitrypanosomal and anticancer assays represent independent analysis. The data are presented as the inhibitory concentration (IC50) ± standard error (SE). The statistical analysis for the IC50 values was carried out employing the Data Analysis complement Wizard of Excel 2000 by adjusting the dose-response curve to a sigmoidal model (Microsoft, Seattle, WA, USA).

[3] = tested on: liver cancer cells; design: method as in PMID 20839128; conditions: concentration at which growth inhibition was induced; cited from earlier work
[4] = tested on: T. cruzi trypomastigotes; conditions: cited from earlier work
[5] = tested on: SF-268; assay: Anticancer assay (SRB), SF-268; assay type: cell-based; conditions: human central nervous system cancer line, 48 h, IC50 ± standard error
Description: (§2) MCF-7, NCI-H460, and SF-268 cancer cells lines were obtained from the American Type Culture Collection (ATCC, Manassas, VA, USA) and cultivated in 96-well plates at 37 °C under a 5% CO2 atmosphere using RPMI-1640 medium (Sigma-Aldrich, USA) sterilized with 0.05% gentamicin (50 mg/mL), supplemented with 10% FBS (fetal bovine serum; Gibco, Invitrogen, Carlsbad, CA, USA), and allowed to adhere for 24 h. After incubation, cancer cells were treated with bufadienolides dissolved in DMSO at five different concentrations and analyzed by duplicate for 48 h. RPMI without cells was used as color control and doxorubicin was used as inhibition control. After treatment, cells were fixed with 25% tricholoroacetic acid (TCA) for 60 min, air dried, and stained with sulforhodamine-B (SRB). Washes with acetic acid at 1% were carried out to eliminate excess of SRB. Tris was added to dissolve the bound SRB. The plate was shaken and absorbance was read at 515 nm using a color plate reader.
as §1

[6] = tested on: NCI-H460; assay: Anticancer assay (SRB), NCI-H460; assay type: cell-based; conditions: human lung cancer line, 48 h, IC50 ± standard error
Description: as §2, §1

[7] = tested on: MCF-7; assay: Anticancer assay (SRB), MCF-7; assay type: cell-based; conditions: MCF7, human breast cancer line, 48 h, IC50 ± standard error
Description: as §2, §1

[8] = tested on: (Na+-K+) ATPase from T. cruzi; design: method as in PMID 16797482; conditions: cloned and characterized enzyme; cited from earlier work
[9] = epithelial cells from monkey kidney (ATCC), five days incubation, MTT, IC50 ± standard error
[10] = trypomastigotes, five days treatment, IC50 ± standard error

Q: With C[C@]12CC[C@H](OC(=O)CCCCCCC(=O)NC(CCCNC(=N)N)C(=O)O)CC1CCC1C2CC[C@]2(C)[C@@H](c3ccc(=O)oc3)[C@@H](O)C[C@]12O (stereo partly drawn) [Compound 5, 16β-hydroxy-desacetyl-bufotalin-3-suberoyl-arginine ester] as the compound, how does the IC50 [1] read?
A: 810 ± 350 nM

Q: What about the IC50 [2] of the same compound?
A: 6900 ± 950 nM

Q: Which results are given for CC(=O)O[C@H]1C[C@]2(O)[C@@H]3CC[C@@H]4C[C@@H](OC(=O)CCCCCCC(=O)NC(CCCNC(=N)N)C(=O)O)CC[C@]4(C)[C@H]3CC[C@]2(C)[C@H]1c1ccc(=O)oc1 (some centres unmarked) [Compound 6, Bufotalin-3-suberoyl-arginine ester]?
A: IC50 [1]: 340 ± 200 nM; IC50 [2]: 4900 ± 1000 nM

Q: Which IC50 [1] does the source give for CC(=O)O[C@H]1C[C@]2(O)[C@@H]3CC[C@@H]4C[C@@H](OC(=O)CCCCCC(=O)NC(CCCNC(=N)N)C(=O)O)CC[C@]4(C)[C@H]3CC[C@]2(C)[C@H]1c1ccc(=O)oc1 (some centres unmarked) [Compound 4, Bufotalin-3-pimeloyl-arginine ester] here?
A: 170 ± 90 nM

Q: What about the IC50 [2] of the same compound?
A: 4600 ± 1750 nM

Q: And the “growth inhibition against liver cancer cells” value [3]?
A: 7.24 µM

Q: With CC(=O)O[C@H]1[C@H]2O[C@]23[C@@H]2CC[C@@H]4C[C@@H](OC(=O)CCCCCC(=O)NC(CCCNC(=N)N)C(=O)O)CC[C@]4(C)[C@H]2CC[C@]3(C)[C@H]1c1ccc(=O)oc1 (some centres unmarked) [Compound 8, Cinobufagin-3-pimeloyl-arginine ester] as the compound, how does the IC50 [1] read?
A: 720 ± 310 nM

Q: And the IC50 [2]?
A: 14700 ± 1800 nM

Q: Which “IC50 against T. cruzi trypomastigotes” value ([4]; trypomastigotes, ref Tempone et al. (2008) [13]) does the source give for C[C@]12CC[C@H]3[C@@H](CC[C@]4(O)C[C@@H](O)CC[C@]34C=O)[C@@]1(O)CC[C@@H]2c1ccc(=O)oc1 [hellebrigenin] here?
A: 91.7 µg/mL (≈ 220 µM)

Q: For CC(=O)O[C@H]1[C@H]2O[C@]23[C@@H]2CC[C@@H]4C[C@@H](OC(=O)CCCCC(=O)NC(CCCNC(=N)N)C(=O)O)CC[C@]4(C)[C@H]2CC[C@]3(C)[C@H]1c1ccc(=O)oc1 (some centres unmarked) [Compound 7, Cinobufagin-3-adipoyl-arginine ester], which IC50 [1] is on record?
A: 3600 ± 1640 nM

Q: What about the IC50 [2] of the same compound?
A: 16700 ± 2930 nM

Q: For COc1cccc2c1C(=O)c1c(O)c3c(c(O)c1C2=O)C[C@@](O)(C(=O)CO)C[C@@H]3O[C@H]1C[C@H](N)[C@H](O)[C@H](C)O1 [doxorubicin, reference compound], which IC50 [1, 9] is on record?
A: 230 ± 40 nM

Q: What about the IC50 [5] of the same compound?
A: 610 ± 57 nM

Q: What about the IC50 [6] of the same compound?
A: 59 ± 5.06 nM

Q: And the IC50 [7]?
A: 76 ± 3.01 nM

Q: For C[C@]12CC[C@H](O)C[C@@]1(O)CC[C@@H]1[C@@H]2CC[C@]2(C)[C@@H](c3ccc(=O)oc3)CC[C@]12O [telocinobufagin], which “IC50 against T. cruzi trypomastigotes” value [4] is on record?
A: > 200 µg/mL

Q: Which “inhibition of enzymatic activity of T. cruzi (Na+-K+) ATPase” value [8] does the source give for C[C@@H]1O[C@@H](O[C@H]2C[C@@H](O)[C@]3(CO)[C@H]4[C@H](O)C[C@]5(C)[C@@H](C6=CC(=O)OC6)CC[C@]5(O)[C@@H]4CC[C@]3(O)C2)[C@H](O)[C@H](O)[C@H]1O [ouabain] here?
A: not inhibited

Q: Which results are given for CC12CCC(OC(=O)CCCCC(=O)NC(CCCNC(=N)N)C(=O)O)CC1CCC1C2CCC2(C)C(c3ccc(=O)oc3)C(O)CC12O (stereo not drawn) [Compound 1, 16β-hydroxy-desacetyl-bufotalin-3-adipoyl-arginine ester]?
A: IC50 [1]: 1890 ± 630 nM; IC50 [2]: 8000 ± 750 nM

Q: Which IC50 [2, 10] does the source give for O=C(Cn1ccnc1[N+](=O)[O-])NCc1ccccc1 [benznidazole, reference compound] here?
A: 2730 ± 160 nM

Q: For CC(=O)O[C@H]1C[C@]2(O)[C@@H]3CC[C@@H]4C[C@@H](O)CC[C@]4(C)[C@H]3CC[C@]2(C)[C@H]1c1ccc(=O)oc1 [Compound 2, Bufotalin], which IC50 [1, 9] is on record?
A: 46000 ± 6290 nM

Q: What about the IC50 [5] of the same compound?
A: 20500 nM

Q: And the IC50 [6]?
A: 229 ± 0.08 nM

Q: And the IC50 [7]?
A: 94 ± 0.03 nM

Q: What about the IC50 [2, 10] of the same compound?
A: 19600 ± 3380 nM

Q: Which IC50 [1] does the source give for CC(=O)O[C@H]1[C@H]2O[C@]23[C@@H]2CC[C@@H]4C[C@@H](OC(=O)CCCCCCC(=O)NC(CCCNC(=N)N)C(=O)O)CC[C@]4(C)[C@H]2CC[C@]3(C)[C@H]1c1ccc(=O)oc1 (some centres unmarked) [Compound 9, Cinobufagin-3-suberoyl-arginine ester] here?
A: 250 ± 80 nM

Q: What about the IC50 [2] of the same compound?
A: 19000 ± 5730 nM

Q: With C[C@]12CC[C@H](OC(=O)CCCCCC(=O)NC(CCCNC(=N)N)C(=O)O)CC1CCC1C2CC[C@]2(C)[C@@H](c3ccc(=O)oc3)[C@@H](O)C[C@]12O (stereo partly drawn) [Compound 3, 16β-hydroxy-desacetyl-bufotalin-3-pimeloyl-arginine ester] as the compound, how does the IC50 [1] read?
A: 240 ± 200 nM

Q: What about the IC50 [2] of the same compound?
A: 8700 ± 1250 nM

Q: Which results are given for CC(=O)O[C@H]1[C@H]2O[C@]23[C@@H]2CC[C@@H]4C[C@@H](O)CC[C@]4(C)[C@H]2CC[C@]3(C)[C@H]1c1ccc(=O)oc1 [Compound 10, Cinobufagin]?
A: IC50 [1, 9]: 54100 ± 4730 nM; IC50 [5]: 4680 nM; IC50 [6]: 14 ± 0.01 nM; IC50 [7]: 9 ± 0.01 nM; IC50 [2, 10]: 29000 ± 2570 nM
